Experimental data: EP1082958A2, “5-HT1F agonists in chronic pain” (ELI LILLY AND COMPANY, priority 1996, dated 1998)

Legend:
[1] = test system: neuronal protein extravasation; assay: Protein extravasation after electrical stimulation of the trigeminal ganglion (Evans Blue in dura); type: in vivo, Harlan Sprague-Dawley rats or guinea pigs; details: 10 minutes before stimulation of the left trigeminal ganglion, dose inhibiting extravasation by 50%, approximated from dose-response curve, rats or guinea pigs (species not given)
Procedure: Harlan Sprague-Dawley rats (225-325 g) or guinea pigs from Charles River Laboratories (225-325 g) were anesthetized with sodium pentobarbital intraperitoneally (65 mg/kg or 45 mg/kg respectively) and placed in a stereotaxic frame (David Kopf Instruments) with the incisor bar set at - 3.5 mm for rats or -4.0 mm for guinea pigs. Following a midline sagital scalp incision, two pairs of bilateral holes were drilled through the skull (6 mm posteriorly, 2.0 and 4.0 mm laterally in rats; 4 mm posteriorly and 3.2 and 5.2 mm laterally in guinea pigs, all coordinates referenced to bregma). Pairs of stainless steel stimulating electrodes (Rhodes Medical Systems, Inc.) were lowered through the holes in both hemispheres to a depth of 9 mm (rats) or 10.5 mm (guinea pigs) from dura.
The femoral vein was exposed and a dose of the test compound was injected intravenously (1 mL/kg). Approximately 7 minutes later, a 50 mg/kg dose of Evans Blue, a fluorescent dye, was also injected intravenously. The Evans Blue complexed with proteins in the blood and functioned as a marker for protein extravasation. Exactly 10 minutes post-injection of the test compound, the left trigeminal ganglion was stimulated for 3 minutes at a current intensity of 1.0 mA (5 Hz, 4 msec duration) with a Model 273 potentiostat/ galvanostat (EG&G Princeton Applied Research).
Fifteen minutes following stimulation, the animals were killed and exsanguinated with 20 mL of saline. The top of the skull was removed to facilitate the collection of the dural membranes. The membrane samples were removed from both hemispheres, rinsed with water, and spread flat on microscopic slides. Once dried, the tissues were coverslipped with a 70% glycerol/water solution.
A fluorescence microscope (Zeiss) equipped with a grating monochromator and a spectrophotometer was used to quantify the amount of Evans Blue dye in each sample. An excitation wavelength of approximately 535 nm was utilized and the emission intensity at 600 nm was determined. The microscope was equipped with a motorized stage and also interfaced with a personal computer. This facilitated the computer-controlled movement of the stage with fluorescence measurements at 25 points (500 µm steps) on each dural sample. The mean and standard deviation of the measurements was determined by the computer.
The extravasation induced by the electrical stimulation of the trigeminal ganglion was an ipsilateral effect (i.e. occurs only on the side of the dura in which the trigeminal ganglion was stimulated). This allows the other (unstimulated) half of the dura to be used as a control. The ratio of the amount of extravasation in the dura from the stimulated side compared to the unstimulated side dura was calculated. […]

5-HT1E = target: T1, 5-HT1E (Homo sapiens, UniProt P28566); assay: Radioligand binding ([3H]5-HT displacement) to cloned 5-HT1E receptor; details: read-out: BINDING TO SEROTONIN (5-HT1) RECEPTOR SUBTYPES (Ki-nM) 5-HT1E, 4.5-5.5 nM [3H]5-HT, 37°C, Ki from IC50 by Cheng-Prusoff
T1 construct: expressed in transfected cells; host or cells: transfected Ltk- cells (by analogy 'as described supra')
T1 sequence (P28566 whole entry, species assumed): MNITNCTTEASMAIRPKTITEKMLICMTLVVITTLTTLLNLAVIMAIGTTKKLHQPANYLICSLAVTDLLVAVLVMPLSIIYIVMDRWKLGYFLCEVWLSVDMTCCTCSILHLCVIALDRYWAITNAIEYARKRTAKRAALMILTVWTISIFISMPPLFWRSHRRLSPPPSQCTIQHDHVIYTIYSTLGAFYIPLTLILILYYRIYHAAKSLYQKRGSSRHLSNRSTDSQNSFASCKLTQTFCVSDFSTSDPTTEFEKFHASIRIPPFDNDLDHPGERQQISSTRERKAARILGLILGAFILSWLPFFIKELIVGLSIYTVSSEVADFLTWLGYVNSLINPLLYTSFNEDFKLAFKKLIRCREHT
Procedure: Membrane Preparation: Membranes were prepared from transfected Ltk- cells which were grown to 100% confluency. The cells were washed twice with phosphate-buffered saline, scraped from the culture dishes into 5 mL of ice-cold phosphate-buffered saline, and centrifuged at 200 x g for 5 minutes ^at 4°C. The pellet was resuspended in 2.5 mL of ice-cold Tris buffer (20 mM Tris HCl, pH=7.4 a^t […]) and homogenized with a Wheaton tissue grinder. The lysate was subsequently centrifuged at 200 x g for 5 minutes at 4°C to pellet large fragments which were discarded. The supernatant was collected and centrifuged at 40,000 x g for 20 minutes at 4°C. […] Protein concentrations were determined by the method of Bradford (Anal. Biochem., 72, 248-254 (1976)).
Radioligand Binding: [^3H-5-HT] binding was performed using slight modifications of the 5-HT1D assay conditions reported by Herrick-Davis and Titeler (J. Neurochem., 50, 1624-1631 (1988)) with the omission of masking ligands. […] Incubation times were 30 minutes for both saturation and displacement studies based upon initial investigations which determined equilibrium binding conditions. […] Binding data was analyzed by computer-assisted nonlinear regression analysis (Accufit and Accucomp, Lunden Software, Chagrin Falls, OH). […]

SMILES	Inhibition of Protein Extravasation, i.v. ID50 [1] [mmol/kg]	Ki (5-HT1E) [nM]
CNS(=O)(=O)Cc1ccc2[nH]cc(CCN(C)C)c2c1.O=C(O)CCC(=O)O [Compound I, 3-[2-(dimethylamino)ethyl]-N-methyl-1H-indole-5-methanesulfonamide butane-1,4-dioate (1:1)]	2.6e-08	2520
O=C(O)C(=O)O.Oc1ccc2[nH]cc(C3CCNCC3)c2c1 [Compound III, 5-hydroxy-3-(4-piperidinyl)-1H-indole oxalate]	8.9e-09	
CCN(CC)C1CCc2cccc(Cl)c2C1.Cl (centres unmarked) [Compound IV, 8-chloro-2-diethylamino-1,2,3,4-tetrahydronaphthalene hydrochloride]	1.2e-07	
CN(C)C1CCc2[nH]c3ccc(O)cc3c2C1 (centres unmarked) [Compound V, 6-hydroxy-3-dimethylamino-1,2,3,4-tetrahydrocarbazole]	8.7e-09	
